Experiment [1] addresses T1, claudin-15 (Homo sapiens, UniProt P56746).
T1 construct: expressed in transfected cells; host or cells: Madin-Darby Canine Kidney (MDCK) I cells, doxycycline-induced expression
T1 sequence (P56746 1-228): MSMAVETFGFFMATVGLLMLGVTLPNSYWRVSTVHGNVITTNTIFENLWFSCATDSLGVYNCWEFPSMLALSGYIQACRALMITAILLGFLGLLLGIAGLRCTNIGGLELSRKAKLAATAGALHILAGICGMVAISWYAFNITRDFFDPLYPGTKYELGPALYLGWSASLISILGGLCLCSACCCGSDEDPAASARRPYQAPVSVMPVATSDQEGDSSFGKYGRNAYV
As to the kind of experiment: TER across MDCK I monolayers induced to express claudin-15. The format is cell-based. Particulars: FIG. 20; concentrations lower than 100 μM; resistance normalized to vehicle. The source says: Electrical measures are used to assess the flow of ions through the claudin channels. The most commonly used measurement in the tight junction field is transepithelial electrical resistance (TER). These assays can be performed using epithelial cells grown on permeable supports (in vitro) or using intact tissue from the GI tract mounted across apertures (ex vivo).
Two different Madin-Darby Canine Kidney (MDCK) I cell lines were used, which respectively express either claudin-2 or -15 when grown in the presence of doxycycline. These cells are useful in assessing the specificity of molecule effects on claudin-2 versus claudin-15. Caco-2 BBe epithelial cells, which normally express claudin-2 and some claudin-15, were also used to better understand the utility of these molecules in blocking claudins in the gastrointestinal (GI) tract. Caco-2 BBe and MDCK cells were grown on 0.33 cm^2 polycarbonate semi-permeable membranes with 0.4 μm pores (Corning Life Sciences, Corning, NY) and used 4 days (MDCK) or 3 weeks (Caco-2 BBe) after plating. […]
Molecules were solubilized in vehicle (dimethylsulfoxide (DMSO)) and applied to both sides of the epithelial monolayer after first measuring TER at t=0 (FIGS. 17 and 18). […] Readings were performed for at least 3 hours after application to rule out epithelial cell injury, which would reduce TER. […]

The test system of experiment [2] is mouse mucosa. As to the kind of experiment: TER of mouse duodenum mucosa mounted in Ussing chambers. Particulars: FIG. 22, 100 μM added bilaterally, versus vehicle, P<0.01. The source says: The same techniques to measure TER and ion selectivity also apply to intact mucosa isolated from mice. The only significant difference is the tissue was first stripped of its muscularis propria and mounted in chambers, known as Ussing chambers. The same techniques were used to measure ion selectivity. Identical solutions were used, but also bubbled with 100% oxygen.
For TER measurements, duodenum segments were stripped of muscularis propria and mounted in Ussing chambers, and equilibrated in oxygenated HBSS for 15 min at 37° C. Vehicle control solution (DMSO) or the same solution containing 100 μM NSC 67736 were then added bilaterally. TER was recorded using current clamp pulses from 0 to 10 μA and Vrev was recorded by clamping current to 0. Electrode bridges were made 3% agarose KCl.

Experiment [3] has as its system colonoids derived from a patient with inflammatory bowel disease. As to the kind of experiment: Organoid shrinking assay in colonoids after Na+ to NMDG+ buffer exchange. The format is cell-based, human. The conditions noted are these: FIG. 25. The source says:
For this study, organoids derived from human colon biopsies (colonoids) were first equilibrated in steady-state with Na^+ as the predominant extracellular cation. Extraluminal Na^+ was then replaced with N-methyl-D-glucamine (NMDG^+) by buffer exchange. The buffer exchange generates a large concentration gradient for Na^+ to diffuse out of the organoid lumen. […] See, for example, FIG. 24. As a result, the net Na^+ flux across tight junctions creates an osmotic gradient for water to exit the organoid through tight junctions, causing organoids to shrink. The size of organoids is measured by time-lapse microscopy, and the rate and extent of shrinkage can be determined as an assay of claudin permeability. Reduced rate and extent of shrinkage indicates reduced permeability.
Colonoids derived from a patient with inflammatory bowel disease were first equilibrated in steady-state with Na^+ containing media. Equilibrated colonoids were treated with NSC 73446 or a vehicle control and the extraluminal Na^+ was then replaced with N-methyl-D-glucamine (NMDG^+) by buffer exchange. As is apparent from the results set forth in FIG. 25, water transport across human epithelium was modulated by NSC 73446.

As to `O=C(Nc1cccc(C(=O)Nc2cc(C3=NCCN3)cc(C3=NCCN3)c2)c1)Nc1cccc(C(=O)Nc2cc(C3=NCCN3)cc(C3=NCCN3)c2)c1` [NSC 53299], the “dose response of TER” value in experiment [1] is recorded as “effective at low micromolar concentrations”. `Cl.Cl.O=C(Nc1ccc(C(=O)Nc2ccc(C3=NCCCN3)cc2)cc1)Nc1ccc(C2=NCCCN2)cc1` [NSC 67736]: the “change in TER (barrier function) in mouse mucosa” value in experiment [2] was “increases barrier function”.

For `CCCNC(=O)c1cc(NC(=O)Nc2ccc(C3=NCCCN3)cc2)cc(NC(=O)Nc2ccc(C3=NCCCN3)cc2)c1.Cl` [NSC 73446], the “water transport across human epithelium” value in experiment [3] (inferred from colonoid size change) is “reduces water transport out of the lumen of the colonoid”. The “colonoid size change (rate and extent of shrinkage)” value in experiment [3] (time-lapse microscopy, relative to vehicle control) is “minimizes the rate and extent of colonoid size decrease”.

(Values after patent publication US20250154110A1, “CLAUDIN INHIBITORS AND METHODS OF USE THEREOF” (The University of Chicago, priority 2021, published 2025).)
